Measured values published in ChEMBL document CHEMBL5247655, “Simplified Derivatives of Tetrandrine as Potent and Specific P-gp Inhibitors to Reverse Multidrug Resistance in Cancer Chemotherapy” (J Med Chem, 2023).
Calls of active or inactive are those of the source. The rule behind the calls is not given here.

Legend:
[1] = biological target: T1, ATP-dependent translocase ABCB1 (Homo sapiens, UniProt P08183); experiment: Inhibition of P-gp efflux in vincristine resistant human Eca-109 cells assessed as increase in rhodamine 123 fluorescence intensity at 30 uM; type: cell-based; conditions: eca-109, 30 µM, TDE = time-dependent effect, time 0-5 hrs
ECa-109 cell line [2] = experiment: Reversal of vincristine-resistance in human Eca-109 cells assessed as fold reversal by measuring cell viability incubated for 48 hrs by CCK-8 method relative to vincristine alone; type: functional
[3] = Cytotoxicity against human HK-2 cells incubated for 48 hrs by CCK-8 method; type: toxicity, cell-based
ECa-109 cell line [4] = experiment: Reversal of VCR -resistance in human Eca-109 cells assessed as cell viability at 1 uM incubated for 48 hrs by CCK-8 method (reference value: 6830.0+/-537.0 nM); type: functional, cell-based; conditions: ECa-109, 48 h
ECa-109 cell line [5] = experiment: Reversal of vincristine-resistance in human Eca-109 cells assessed as fold reversal by measuring cell viability at 1 uM incubated for 48 hrs by CCK-8 method relative to vincristine alone; type: functional
ECa-109 cell line [6] = experiment: Reversal of vincristine-resistance in human Eca-109 cells assessed as fold reversal by measuring cell viability at 5 uM incubated for 48 hrs by CCK-8 method relative to vincristine alone; type: functional
ECa-109 cell line [7] = experiment: Induction of apoptosis in vincristine resistant human Eca-109 cells assessed as early apoptotic cells at 1 uM incubated for 24 hrs by AnnexinV-FITC/PI staining based flow cytometric analysis (reference value: 2.30%); type: functional
ECa-109 cell line [8] = experiment: Induction of apoptosis in vincristine resistant human Eca-109 cells assessed as late apoptotic cells at 2.5 uM incubated for 24 hrs by AnnexinV-FITC/PI staining based flow cytometric analysis (reference value: 7.19%); type: functional
ECa-109 cell line [9] = experiment: Induction of apoptosis in vincristine resistant human Eca-109 cells assessed as necrotic cells at 2.5 uM incubated for 24 hrs by AnnexinV-FITC/PI staining based flow cytometric analysis (reference value: 0.25%); type: functional
ECa-109 cell line [10] = experiment: Induction of apoptosis in vincristine resistant human Eca-109 cells assessed as early apoptotic cells at 2.5 uM incubated for 24 hrs in presence of vincristine by AnnexinV-FITC/PI staining based flow cytometric analysis (reference value: 4.43%); type: functional
ECa-109 cell line [11] = experiment: Induction of apoptosis in vincristine resistant human Eca-109 cells assessed as late apoptotic cells at 5 uM incubated for 24 hrs in presence of vincristine by AnnexinV-FITC/PI staining based flow cytometric analysis (reference value: 6.01%); type: functional
ECa-109 cell line [12] = experiment: Induction of apoptosis in vincristine resistant human Eca-109 cells assessed as necrotic cells at 2.5 uM incubated for 24 hrs in presence of vincristine by AnnexinV-FITC/PI staining based flow cytometric analysis (reference value: 0.35%); type: functional
ECa-109 cell line [13] = experiment: Synergistic antitumor activity against in vincristine resistant p-gp overexpressing human Eca-109 cells xenografted in nude mouse assessed as inhibition of tumor proliferation at 30 mg/kg, IG administered every two days for 21 days in presence of vincristine; type: functional, organism-based; conditions: time 21.0 day
ECa-109 cell line [14] = experiment: Synergistic antitumor activity against in vincristine resistant p-gp overexpressing human Eca-109 cells xenografted in nude mouse assessed as increase in nuclear pyknosis at 30 mg/kg, IG administered every two days for 21 days in presence of vincristine by TUNEL analysis; type: functional, organism-based; conditions: time 21.0 day
[15] = Cmax in Sprague-Dawley rat at 30 mg/kg, po measured upto 24 hrs by UPLC/MS/MS analysis; type: ADME, organism-based; design: time < 24 hrs, dose 30 mg/kg, route po; conditions: in vivo
[16] = Half life in Sprague-Dawley rat at 3 mg/kg, iv measured upto 24 hrs by UPLC/MS/MS analysis; type: ADME, organism-based; conditions: in vivo
[17] = MRT (0 to infinity) in Sprague-Dawley rat at 30 mg/kg, po measured upto 24 hrs by UPLC/MS/MS analysis; type: ADME, organism-based; conditions: in vivo
[18] = AUMC (0 to infinity) in Sprague-Dawley rat at 30 mg/kg, po measured upto 24 hrs by UPLC/MS/MS analysis; type: ADME, organism-based; conditions: in vivo
[19] = Apparent volume of distribution during terminal phase in Sprague-Dawley rat at 3 mg/kg, iv measured upto 24 hrs by UPLC/MS/MS analysis; type: ADME, organism-based; conditions: in vivo
[20] = Apparent oral clearance in Sprague-Dawley rat at 3 mg/kg, iv measured upto 24 hrs by UPLC/MS/MS analysis; type: ADME, organism-based; conditions: in vivo
[21] = biological target: T1, ATP-dependent translocase ABCB1; experiment: Inhibition of P-gp efflux in vincristine resistant human Eca-109 cells assessed as effect on accumulation of rhodamine123; type: cell-based
[22] = biological target: T1, ATP-dependent translocase ABCB1; experiment: Inhibition of P-gp efflux in vincristine resistant human Eca-109 cells assessed as effect on accumulation of calcein-AM; type: cell-based
[23] = biological target: T1, ATP-dependent translocase ABCB1; experiment: Inhibition of P-gp efflux in vincristine resistant human Eca-109 cells assessed as increase in intracellular accumulation of calcein-AM at 1 to 5 uM incubated for 1 hr by flow cytometry analysis; type: cell-based; conditions: eca-109, 1 h, dose 1-5 µM
[24] = biological target: Multidrug resistance-associated protein 1 (Homo sapiens, UniProt P33527); experiment: Binding affinity to MRP1 in vincristine resistant human Eca-109 cells assessed as stabilization of protein at 100 uM incubated for 30 mins by thermal shift assay; type: cell-based; conditions: eca-109, 0.5 h
Chain of Multidrug resistance-associated protein 1 (P33527 whole entry): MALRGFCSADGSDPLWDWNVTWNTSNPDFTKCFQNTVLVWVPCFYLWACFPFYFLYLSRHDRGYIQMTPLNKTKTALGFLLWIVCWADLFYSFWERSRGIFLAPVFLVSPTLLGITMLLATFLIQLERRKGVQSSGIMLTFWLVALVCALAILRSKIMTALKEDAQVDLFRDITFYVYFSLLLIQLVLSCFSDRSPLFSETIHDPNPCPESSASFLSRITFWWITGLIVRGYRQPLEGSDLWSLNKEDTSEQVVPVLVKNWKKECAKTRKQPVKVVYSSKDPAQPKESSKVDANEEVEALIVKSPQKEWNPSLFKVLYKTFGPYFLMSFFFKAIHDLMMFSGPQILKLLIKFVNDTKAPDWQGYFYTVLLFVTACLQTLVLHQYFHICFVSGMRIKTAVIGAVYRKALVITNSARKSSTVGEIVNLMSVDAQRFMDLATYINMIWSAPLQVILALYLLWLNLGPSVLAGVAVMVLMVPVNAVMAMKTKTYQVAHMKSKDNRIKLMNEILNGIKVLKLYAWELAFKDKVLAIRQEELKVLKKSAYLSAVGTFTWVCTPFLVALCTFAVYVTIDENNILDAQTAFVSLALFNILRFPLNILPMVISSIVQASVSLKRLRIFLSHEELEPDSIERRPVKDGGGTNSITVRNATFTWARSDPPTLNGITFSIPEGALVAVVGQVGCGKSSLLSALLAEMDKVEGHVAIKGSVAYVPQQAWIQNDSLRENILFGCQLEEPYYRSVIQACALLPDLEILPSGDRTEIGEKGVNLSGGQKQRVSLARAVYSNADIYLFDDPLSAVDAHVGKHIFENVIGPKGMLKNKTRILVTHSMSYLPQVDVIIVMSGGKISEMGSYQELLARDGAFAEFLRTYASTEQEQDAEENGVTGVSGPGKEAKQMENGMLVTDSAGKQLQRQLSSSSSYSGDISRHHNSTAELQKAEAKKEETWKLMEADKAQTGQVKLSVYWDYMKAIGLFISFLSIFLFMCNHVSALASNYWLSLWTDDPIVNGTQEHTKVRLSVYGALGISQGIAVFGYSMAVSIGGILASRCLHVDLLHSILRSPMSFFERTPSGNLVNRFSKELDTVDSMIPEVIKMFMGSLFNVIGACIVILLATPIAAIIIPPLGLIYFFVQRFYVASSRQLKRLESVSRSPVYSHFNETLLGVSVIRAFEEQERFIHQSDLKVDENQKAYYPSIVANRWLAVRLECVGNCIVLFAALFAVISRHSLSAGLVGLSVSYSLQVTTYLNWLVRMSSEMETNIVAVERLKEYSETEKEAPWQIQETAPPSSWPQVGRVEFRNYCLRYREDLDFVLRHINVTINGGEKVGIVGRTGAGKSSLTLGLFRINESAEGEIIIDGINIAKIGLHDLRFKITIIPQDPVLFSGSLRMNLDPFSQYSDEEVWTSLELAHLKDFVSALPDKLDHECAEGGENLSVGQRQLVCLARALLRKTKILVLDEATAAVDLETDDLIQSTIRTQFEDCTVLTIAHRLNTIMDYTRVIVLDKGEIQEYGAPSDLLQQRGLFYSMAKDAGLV

T1 sequence (P08183 whole entry): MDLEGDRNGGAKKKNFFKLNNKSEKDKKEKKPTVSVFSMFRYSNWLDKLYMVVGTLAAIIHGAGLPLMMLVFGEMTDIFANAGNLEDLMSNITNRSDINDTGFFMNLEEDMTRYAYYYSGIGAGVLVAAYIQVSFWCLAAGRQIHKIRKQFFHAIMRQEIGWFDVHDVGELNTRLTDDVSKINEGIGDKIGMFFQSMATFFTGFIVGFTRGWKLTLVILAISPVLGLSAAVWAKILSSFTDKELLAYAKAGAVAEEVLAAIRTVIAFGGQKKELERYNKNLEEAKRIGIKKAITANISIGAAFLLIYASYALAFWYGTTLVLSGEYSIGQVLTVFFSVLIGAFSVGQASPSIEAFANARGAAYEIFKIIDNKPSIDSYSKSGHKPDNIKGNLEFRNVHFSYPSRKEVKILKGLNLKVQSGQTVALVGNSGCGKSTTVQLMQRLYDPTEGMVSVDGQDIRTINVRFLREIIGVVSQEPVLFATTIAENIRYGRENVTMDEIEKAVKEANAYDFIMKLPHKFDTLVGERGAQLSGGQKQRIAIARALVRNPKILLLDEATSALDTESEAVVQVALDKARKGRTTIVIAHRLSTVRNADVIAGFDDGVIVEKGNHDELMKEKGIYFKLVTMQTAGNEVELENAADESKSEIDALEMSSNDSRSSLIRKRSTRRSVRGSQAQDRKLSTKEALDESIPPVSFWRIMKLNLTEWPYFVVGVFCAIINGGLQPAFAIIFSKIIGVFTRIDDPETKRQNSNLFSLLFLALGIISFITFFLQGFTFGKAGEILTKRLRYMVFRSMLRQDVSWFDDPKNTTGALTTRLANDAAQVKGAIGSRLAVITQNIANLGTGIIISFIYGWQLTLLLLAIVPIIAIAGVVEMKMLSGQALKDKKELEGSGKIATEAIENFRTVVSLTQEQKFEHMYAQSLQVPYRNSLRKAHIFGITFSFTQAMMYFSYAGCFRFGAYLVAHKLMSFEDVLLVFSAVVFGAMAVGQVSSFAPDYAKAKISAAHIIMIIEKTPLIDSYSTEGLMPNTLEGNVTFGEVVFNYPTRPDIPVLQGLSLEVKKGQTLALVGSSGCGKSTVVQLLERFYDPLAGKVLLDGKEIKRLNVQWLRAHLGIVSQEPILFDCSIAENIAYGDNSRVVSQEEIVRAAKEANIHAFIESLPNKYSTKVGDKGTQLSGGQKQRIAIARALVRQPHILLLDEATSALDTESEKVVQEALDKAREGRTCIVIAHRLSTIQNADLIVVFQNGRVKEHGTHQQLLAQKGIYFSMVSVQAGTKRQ

For `COc1cc2c(cc1OC)C(Cc1ccc(OC)c(OCc3ccccc3)c1)N(C)CC2` (centres undefined), the “inhibition (INH)” value [1] was “Tde”, the “fold change (FC)” value (ECa-109 cell line [2]) was 690.6 and the IC50 at 48 h [3] was greater than 50 µM. The IC50 (ECa-109 cell line [4]) was 1.87 µM, the “fold change (FC)” value (ECa-109 cell line [5]) was 3.7 and the “fold change (FC)” value (ECa-109 cell line [6]) was 690.6. For the same molecule, the Activity (ECa-109 cell line [7]) was 2.07%, the Activity (ECa-109 cell line [8]) was 5.69% and the Activity (ECa-109 cell line [9]) was 0.11%. It also gave an Activity (ECa-109 cell line [10]) of 17.8%, an Activity (ECa-109 cell line [11]) of 9.81% and an Activity (ECa-109 cell line [12]) of 0.42%. The Activity (ECa-109 cell line [13]) was “Active”, the Activity (ECa-109 cell line [14]) was “Active” and the Cmax [15] was 0.637 µg/mL. The half-life [16] was 8.43 h, the MRT inf [17] was 4.89 h and the AUMC [18] was 131110.55 ng/mL.hr^2. For the same molecule, the Vz/F [19] was 12.84 L/kg, the CL/F [20] was 1.1 L/h/kg and the “inhibition (INH)” value [21] was “Active”. For the same molecule, the “inhibition (INH)” value [22] was “Active”, the “inhibition (INH)” value [23] was “Active” and the Activity [24] was “Not Active”.
